Measurements reported in US12384756B2, “Piperidinedione derivatives” (INNOCURE THERAPEUTICS, INC., priority 2021, dated 2025).

How the values were obtained:
CRBN = target: T1, CRBN (Homo sapiens, UniProt Q96SW2); test: NanoBRET intracellular E3 ligase assay, CRBN binding affinity; settings: BRET assay, compared with pomalidomide
T1 construct: host or cells: HEK 293T
Description: The binding affinity of the synthesized compounds to CRBN E3 ligase was measured using PROMEGA NANOBRET™ Intracellular E3 ligase Assay, CRBN [cat #N2910]. Bioluminescence resonance energy transfer (BRET) assay is a method that the transfer of luminescence energy of POI into a bound fluorescent tracer is measured. […] Thus, the affinity of a compound to the POI can be measure.
9.0 mg/ml of DDB1 expression vector and 1.0 mg/ml of NanoLuc-CRBN fusion vector were transfected using LIPOFECTAMINE™ 3000.
Then, the cell lines were treated with a compound prepared at various concentrations, and then mixed for 15 seconds. Then, cell walls were broken by using digitonin, and the mixture was reacted for 25 minutes. Then, the mixture was treated with luciferase substrate. The luminescence intensity and the fluorescence intensity were measure at donor emission wavelength (450 nm) and at acceptor emission wavelength (610 nm), and then BRET ratio was calculated and normalized. BRET ratio was calculated by the following formula: BRET ratio: Acceptor/Donor×1000 [4] CRBN Binding Affinity of the Compound

SHP2 = target: T2, SHP2 (Homo sapiens, UniProt Q06124); test: SHP2 protein degradation by western blot in MV-4-11 cells; type: cell-based; settings: MV-4-11, 24 hours; for DC50: 50% inhibition of protein expression, read-out: DC50 of SHP2-targeted PROTAC
T2 construct: SHP2 expressed in cells; endogenous in cells; host or cells: MV-4-11
T2 sequence (Q06124 1-593): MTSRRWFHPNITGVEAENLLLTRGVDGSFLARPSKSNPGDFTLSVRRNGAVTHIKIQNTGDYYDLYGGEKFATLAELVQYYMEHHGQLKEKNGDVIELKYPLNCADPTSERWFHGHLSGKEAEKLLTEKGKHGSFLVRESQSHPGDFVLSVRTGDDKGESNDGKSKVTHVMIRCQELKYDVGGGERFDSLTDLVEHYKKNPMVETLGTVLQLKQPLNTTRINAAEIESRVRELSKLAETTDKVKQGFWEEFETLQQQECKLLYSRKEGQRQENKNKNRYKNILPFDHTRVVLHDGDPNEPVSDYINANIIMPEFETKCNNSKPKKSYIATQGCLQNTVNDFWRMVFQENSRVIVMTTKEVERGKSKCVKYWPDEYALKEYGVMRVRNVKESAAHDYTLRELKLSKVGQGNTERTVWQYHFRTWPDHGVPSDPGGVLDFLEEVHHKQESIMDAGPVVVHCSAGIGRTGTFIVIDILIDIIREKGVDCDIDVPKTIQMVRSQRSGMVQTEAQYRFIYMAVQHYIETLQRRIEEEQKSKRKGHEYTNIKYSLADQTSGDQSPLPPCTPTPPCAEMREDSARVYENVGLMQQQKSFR
Description: (§1) Human hematologic cancer cell line [MV-4-11] was cultured in IMDM medium with 10% fetal bovine serum, penicillin [100 U/ml] and streptomycin [[…]]. The synthesized compound was prepared with a stock solution of 10 mM or 50 mM dissolved in DMSO [dimethyl sulfoxide], and it was sequentially diluted to treat the cell line.
To observe the PROTAC's degradation ability to SHP2 expressed in cells, the cells were aliquoted into a 12 well plate at a concentrations of 3×10^5 cells/well, and then the sample was treated for 24 hours. In order to conduct western blotting assay to confirm protein expression, the cell treated with the compound was treated for 30 minutes with 70 μL of RIPA buffer with wherein protease inhibitor is added. Then, cell lysate was collected on ice using a scraper and centrifuged at 4° C. 15,000 rpm for 30 minutes to obtain a supernatant containing protein. Then, SDS-PAGE is conducted for 10 μg of protein per sample, and the protein is transferred to a membrane. The protein is reacted with antibodies of anti-SHP2 and anti-GAPDH at 4° C. for 16 hours, and then, reacted with the secondary antibodies at room temperature for 1 hour. The protein expression is confirmed using SuperSignal™ West Pico PLUS chemiluminescence substrate and image analyzer. The protein expression inhibition was normalized based on the expression value of GAPDH. The amount of protein expression in each sample was measured based on the sample treated with 0.1% DMSO vehicle which was set to 100%. The amount of protein expression was quantified using the Image J program. The change in the amount of protein expression due to the treatment of compound (DC50: the concentration of compounds where the 50% inhibition of protein expression is achieved) was calculated using GraphicPad Prism 8.0 software.

[1] = system: Human hematologic cancer cell line [MV-4-11]; test: Anti-proliferative activity (WST-8) of SHP2 targeted PROTAC in MV-4-11; type: cell-based; settings: MV-4-11, 72 hours; for IC50: Homo sapiens, MV4-11, WST-8, read-out: IC50 of SHP2-targeted PROTAC (cell proliferation)
Description: as §1
The cell survival was calculated by steps of adding in each well […] of water soluble tetrazolium salt (WST-8) which produces formazon in response to dehydrogenase present in the electron transport chain in mitochondria, incubating for 3 hours, measuring the absorbance at 450 nm, and calculating […] PRISM 8.0 software.

T1 sequence (Q96SW2 whole entry): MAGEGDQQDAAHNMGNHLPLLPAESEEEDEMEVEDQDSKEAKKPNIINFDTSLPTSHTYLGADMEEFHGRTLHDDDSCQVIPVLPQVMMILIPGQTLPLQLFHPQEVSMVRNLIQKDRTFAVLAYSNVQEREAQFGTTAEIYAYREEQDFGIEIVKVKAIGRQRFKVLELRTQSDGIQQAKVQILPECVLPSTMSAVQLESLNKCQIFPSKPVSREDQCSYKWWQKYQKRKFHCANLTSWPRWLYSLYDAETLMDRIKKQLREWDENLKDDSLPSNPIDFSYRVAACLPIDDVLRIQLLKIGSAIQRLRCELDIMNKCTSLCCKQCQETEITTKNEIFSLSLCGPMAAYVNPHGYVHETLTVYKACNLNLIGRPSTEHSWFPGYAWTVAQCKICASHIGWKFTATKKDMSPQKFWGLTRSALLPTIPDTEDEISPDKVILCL
T1 sequence (Q16531 whole entry partner): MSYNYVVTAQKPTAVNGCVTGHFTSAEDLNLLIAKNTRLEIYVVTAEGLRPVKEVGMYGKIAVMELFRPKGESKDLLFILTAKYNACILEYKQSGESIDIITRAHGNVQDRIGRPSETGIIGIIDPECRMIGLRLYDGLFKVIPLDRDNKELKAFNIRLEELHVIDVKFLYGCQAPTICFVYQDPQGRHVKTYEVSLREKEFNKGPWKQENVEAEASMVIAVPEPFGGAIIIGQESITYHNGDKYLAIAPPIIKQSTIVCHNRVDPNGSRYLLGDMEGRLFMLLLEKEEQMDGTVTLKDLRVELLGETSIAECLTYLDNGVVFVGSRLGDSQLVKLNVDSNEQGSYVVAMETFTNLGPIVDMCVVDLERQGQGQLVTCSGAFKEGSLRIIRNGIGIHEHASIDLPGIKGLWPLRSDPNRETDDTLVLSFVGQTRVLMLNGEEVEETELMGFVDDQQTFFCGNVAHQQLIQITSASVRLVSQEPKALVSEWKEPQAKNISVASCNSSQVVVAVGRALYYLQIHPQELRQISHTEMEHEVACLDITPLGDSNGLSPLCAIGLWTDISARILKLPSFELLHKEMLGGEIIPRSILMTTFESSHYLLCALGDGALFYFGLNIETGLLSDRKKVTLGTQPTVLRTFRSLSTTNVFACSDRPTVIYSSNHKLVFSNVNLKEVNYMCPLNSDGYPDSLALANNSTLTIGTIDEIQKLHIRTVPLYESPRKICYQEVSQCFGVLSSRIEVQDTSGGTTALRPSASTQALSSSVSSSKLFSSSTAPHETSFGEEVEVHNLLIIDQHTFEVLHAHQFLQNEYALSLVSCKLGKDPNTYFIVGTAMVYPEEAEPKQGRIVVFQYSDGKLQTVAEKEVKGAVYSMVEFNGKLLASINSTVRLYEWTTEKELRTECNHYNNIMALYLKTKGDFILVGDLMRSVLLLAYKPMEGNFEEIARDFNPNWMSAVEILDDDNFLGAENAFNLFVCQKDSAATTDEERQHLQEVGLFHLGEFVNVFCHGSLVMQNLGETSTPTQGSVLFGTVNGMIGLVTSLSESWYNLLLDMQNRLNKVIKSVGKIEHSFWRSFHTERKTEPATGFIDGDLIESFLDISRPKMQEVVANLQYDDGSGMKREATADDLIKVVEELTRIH

Structure (SMILES)	CRBN binding affinity (in words) (CRBN)	SHP2 degradation (in words) (SHP2)	DC50 (SHP2) [nM]	IC50 [1] [nM]	inhibition of cancer cell proliferation (in words) [1]
C[C@@H]1OCC2(CCN(c3cnc(Sc4cccc(NC(=O)CCC(=O)NCCCOCCOCCOCCCNc5ccc6c(=O)n(C7CCC(=O)NC7=O)ncc6c5)c4Cl)c(N)n3)CC2)[C@@H]1N (stereo partly drawn) [Example 73, N1-(3-((3-amino-5-((3S,4S)-4-amino-3-methyl-2-oxa-8-azaspiro[4.5]decan-8-yl)pyrazin-2-yl)thio)-2-chlorophenyl)-N4-(3-(2-(2-(3-((2-(2,6-dioxopiperidin-3-yl)-1-oxo-1,2-dihydrophthalazin-6-yl)amino)propoxy)ethoxy)ethoxy)propyl)succinamide]		effectively degraded	29.9	507	inhibited effectively
C[C@@H]1OCC2(CCN(c3cnc(Sc4cccc(NC(=O)CCC(=O)N5CCN(C(=O)CCOCCOCCOCCOCCNc6cccc7cnn(C8CCC(=O)NC8=O)c(=O)c67)CC5)c4Cl)c(N)n3)CC2)[C@@H]1N (stereo partly drawn) [Example 77, N-(3-((3-amino-5-((3S,4S)-4-amino-3-methyl-2-oxa-8-azaspiro[4.5]decan-8-yl)pyrazin-2-yl)thio)-2-chlorophenyl)-4-(4-(1-((3-(2,6-dioxopiperidin-3-yl)-4-oxo-3,4-dihydrophthalazin-5-yl)amino)-3,6,9,12-tetraoxapentadecan-15-oyl)piperazin-1-yl)-4-oxobutanamide]		effectively degraded	70.2	685	inhibited effectively
C[C@@H]1OCC2(CCN(c3cnc(Sc4cccc(NC(=O)CCC(=O)N5CCN(C(=O)CCOCCOCCOCCOCCOCCNc6cccc7cnn(C8CCC(=O)NC8=O)c(=O)c67)CC5)c4Cl)c(N)n3)CC2)[C@@H]1N (stereo partly drawn) [Example 78, N-(3-((3-amino-5-((3S,4S)-4-amino-3-methyl-2-oxa-8-azaspiro[4.5]decan-8-yl)pyrazin-2-yl)thio)-2-chlorophenyl)-4-(4-(1-((3-(2,6-dioxopiperidin-3-yl)-4-oxo-3,4-dihydrophthalazin-5-yl)amino)-3,6,9,12,15-pentaoxaoctadecan-18-oyl)piperazin-1-yl)-4-oxobutanamide]		effectively degraded	24.1	422	inhibited effectively
C[C@@H]1OCC2(CCN(c3cnc(Sc4cccc(NC(=O)CCC(=O)N5CCN(C(=O)CCOCCOCCOCCOCCOCCOCCNc6cccc7cnn(C8CCC(=O)NC8=O)c(=O)c67)CC5)c4Cl)c(N)n3)CC2)[C@@H]1N (stereo partly drawn) [Example 79, N-(3-((3-amino-5-((3S,4S)-4-amino-3-methyl-2-oxa-8-azaspiro[4.5]decan-8-yl)pyrazin-2-yl)thio)-2-chlorophenyl)-4-(4-(1-((3-(2,6-dioxopiperidin-3-yl)-4-oxo-3,4-dihydrophthalazin-5-yl)amino)-3,6,9,12,15,18-hexaoxahenicosane-21-oyl)piperazin-1-yl)-4-oxobutanamide]		effectively degraded	23.6	337	inhibited effectively

Further lines, with some results ahead:

CRBN binding affinity (in words) (CRBN)	SHP2 degradation (in words) (SHP2)	DC50 (SHP2) [nM]	IC50 [1] [nM]	Structure (SMILES)	inhibition of cancer cell proliferation (in words) [1]
excellent				Cc1nn(C2CCC(=O)NC2=O)c(=O)c2c(F)cccc12 (stereo not shown) [Ex. 7, 3-(8-fluoro-4-methyl-1-oxophthalazin-2(1H)-yl)piperidine-2,6-dione]	
excellent				Cc1nn(C2CCC(=O)NC2=O)c(=O)c2c(N)cccc12 (stereo not shown) [Ex. 8, 3-(8-amino-4-methyl-1-oxophthalazin-2(1H)-yl)piperidine-2,6-dione]	
excellent				COc1cccc2cnn(C3CCC(=O)NC3=O)c(=O)c12 (stereo not shown) [Ex. 11, 3-(8-methoxy-1-oxophthalazin-2(1H)-yl)piperidine-2,6-dione]	
